# PMC7878868, “Mechanisms of feedback inhibition and sequential firing of active sites in plant aspartate transcarbamoylase” (Nature Communications, 2021)
# Residue numbers refer to the chain shown, from its start. Several values for one entry are separate records, joined by “and”; a condition that tells them apart may be missing. Identical values can stand only once. Like-named read-outs stand apart in the source and are kept apart here.
# Experiments:
# atATC WT = target: T1, atATC WT (Arabidopsis thaliana, UniProt P49077); experiment: Colorimetric ATC activity assay, atATC WT; type: biochemical; details: for Activity WT: 10 mM Asp
# T1 construct: 2.6 kDa fusion tag (modified pET28a); made in house; host or cells: E. coli BLR(DE3)-pLysS
# T1 sequence (P49077 82-390): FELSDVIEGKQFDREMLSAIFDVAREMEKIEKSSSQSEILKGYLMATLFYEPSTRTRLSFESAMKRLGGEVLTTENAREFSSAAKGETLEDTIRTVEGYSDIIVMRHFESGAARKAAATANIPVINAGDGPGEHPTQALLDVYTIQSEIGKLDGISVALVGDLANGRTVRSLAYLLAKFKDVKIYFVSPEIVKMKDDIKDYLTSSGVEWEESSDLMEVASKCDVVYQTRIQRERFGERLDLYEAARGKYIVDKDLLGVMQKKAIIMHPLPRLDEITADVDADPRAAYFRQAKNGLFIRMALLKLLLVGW
# Protocol: (§1) Activity was assayed by a colorimetric method[64] adapted to a 96-well plate format. […] Reagent B is light sensitive and was stored at 4 °C in the dark. The color reagents were gently mixed and stored at 4 °C in the dark until added to the sample. Reaction tubes were closed, boiled at 95 °C for 15 min, and kept in the dark for 30 min before measuring the absorbance at 450 nm in a Tecan infinite m200 microplate reader (Tecan). […] Data analysis was done with GraphPad. […] Protein concentration in the assay was 0.3 µM (0.01 mg ml^−1) both for WT and F161A.
# atATC-F161A [1] = target: T2, atATC-F161A (Arabidopsis thaliana, UniProt P49077, F161A); experiment: Colorimetric ATC activity assay, atATC F161A; type: biochemical; details: for Activity F161A: 10 mM Asp
# T2 construct: 2.6 kDa fusion tag (modified pET28a); made in house; host or cells: E. coli BLR(DE3)-pLysS
# T2 sequence (P49077 82-390 F161A): T1 sequence (P49077 82-390) with F80A
# Protocol: as §1
# atATC-F161A [2] = target: T2, atATC-F161A; experiment: biochemical; type: binding
# Protocol: (§2) Experiments were performed in an Auto-iTC200 calorimeter (MicroCal, Malvern-Panalytical) at 25 °C with a 0.2 ml reaction cell and 30–40 µM protein solution (in protomer units) in the cell. […] All solutions were in GF buffer and degassed and mixed in the cell by stirring at 750 rpm. Data analysis was performed with Origin 7 (OriginLab) using a general three-site cooperative and a non-cooperative binding model, restricted to one or two ligand binding sites when convenient[24],[62],[63]. Non-linear least-squares regression analysis was employed to estimate dissociation constants for the interaction of the different ligands with ATC.
# [3] = target: T3, atATC (Arabidopsis ATC aa 82–390) WT (Arabidopsis thaliana, UniProt P49077); experiment: Isothermal titration calorimetry (ITC), atATC WT; type: binding; details: ITC; for Kd: 25 °C
# T3 construct: 2.6 kDa fusion tag (modified pET28a); made in house; host or cells: E. coli BLR(DE3)-pLysS
# T3 sequence (P49077 82-390): T1 sequence (P49077 82-390)
# Protocol: as §2
# atATC WT:PALA = target: T4, atATC WT:PALA (Arabidopsis thaliana, UniProt P49077); experiment: ITC, atATC WT prebound to PALA (WT:PALA); type: binding; details: for N, number of binding sites per protein trimer according to the ligand binding model / -TΔS Site 2 / ΔG Site 2 / ΔH Site 2 / -TΔS Site 3 / ΔG Site 3 / ΔH Site 3: ITC, protein prebound to PALA; for Kd: read-out: KD Site 2
# T4 construct: 2.6 kDa fusion tag (modified pET28a); made in house; host or cells: E. coli BLR(DE3)-pLysS
# T4 sequence (P49077 82-390): T1 sequence (P49077 82-390)
# Protocol: as §2
smiles,measurement,setting,value
"N[C@@H](CC(=O)O)C(=O)O [Asp, aspartate]",K0.5 Asp,"atATC WT; WT, Asp variable, 5 mM CP",0.94 mM and 0.94 ± 0.10 mM
same,K0.5 Asp,"atATC-F161A [1]; F161A, Asp variable, 5 mM CP",3.20 ± 1.03 mM
"O=c1ccn([C@@H]2O[C@H](COP(=O)(O)O)[C@@H](O)[C@H]2O)c(=O)[nH]1 [UMP, uridine 5-monophosphate]",binding detected by ITC,"atATC-F161A [2]; F161A, 70 µM UMP at most, 30-40 µM protein",failed to detect the binding
same,Activity WT,"atATC WT; 0.1 mM UMP, [CP] 0.31 mM",4.11 nmol / min μg and 7.63 nmol / min μg and 5.39 nmol / min μg
same,Activity WT,"atATC WT; 0.1 mM UMP, [CP] 1.25 mM",41.20 nmol / min μg and 48.03 nmol / min μg and 40.64 nmol / min μg
same,Activity WT,"atATC WT; 0.1 mM UMP, [CP] 2.50 mM",66.92 nmol / min μg and 70.05 nmol / min μg and 71.44 nmol / min μg
same,Activity WT,"atATC WT; 0.1 mM UMP, [CP] 3.00 mM",72.17 nmol / min μg and 74.13 nmol / min μg and 71.50 nmol / min μg
same,Activity WT,"atATC WT; 0.1 mM UMP, [CP] 4.00 mM",77.07 nmol / min μg and 76.02 nmol / min μg and 75.78 nmol / min μg
same,Activity WT,"atATC WT; 0.1 mM UMP, [CP] 5.00 mM",76.47 nmol / min μg and 78.06 nmol / min μg and 76.19 nmol / min μg
same,Activity WT,"atATC WT; 0.4 mM UMP, [CP] 1.25 mM",9.87 nmol / min μg and 11.15 nmol / min μg and 12.99 nmol / min μg
same,Activity WT,"atATC WT; 0.4 mM UMP, [CP] 2.50 mM",28.61 nmol / min μg and 31.67 nmol / min μg and 35.52 nmol / min μg
same,Activity WT,"atATC WT; 0.4 mM UMP, [CP] 3.00 mM",41.63 nmol / min μg and 37.33 nmol / min μg and 40.36 nmol / min μg
same,Activity WT,"atATC WT; 0.4 mM UMP, [CP] 4.00 mM",48.76 nmol / min μg and 50.91 nmol / min μg and 53.68 nmol / min μg
same,Activity WT,"atATC WT; 0.4 mM UMP, [CP] 5.00 mM",58.15 nmol / min μg and 59.40 nmol / min μg and 57.60 nmol / min μg
same,Activity F161A,"atATC-F161A [1]; 0.2 mM UMP, [CP] 0.31 mM",31.06 nmol / min μg and 26.77 nmol / min μg and 21.39 nmol / min μg
same,Activity F161A,"atATC-F161A [1]; 0.2 mM UMP, [CP] 0.63 mM",62.38 nmol / min μg and 46.00 nmol / min μg and 48.44 nmol / min μg
same,Activity F161A,"atATC-F161A [1]; 0.2 mM UMP, [CP] 1.25 mM",61.36 nmol / min μg and 58.95 nmol / min μg and 63.80 nmol / min μg
same,Activity F161A,"atATC-F161A [1]; 0.2 mM UMP, [CP] 2.50 mM",64.72 nmol / min μg and 56.89 nmol / min μg and 56.14 nmol / min μg
same,Activity F161A,"atATC-F161A [1]; 0.4 mM UMP, [CP] 0.31 mM",27.07 nmol / min μg and 21.22 nmol / min μg and 30.75 nmol / min μg
same,Activity F161A,"atATC-F161A [1]; 0.4 mM UMP, [CP] 0.63 mM",50.59 nmol / min μg and 53.67 nmol / min μg and 49.88 nmol / min μg
same,Activity F161A,"atATC-F161A [1]; 0.4 mM UMP, [CP] 1.25 mM",68.18 nmol / min μg and 58.61 nmol / min μg and 62.41 nmol / min μg
same,Activity F161A,"atATC-F161A [1]; 0.4 mM UMP, [CP] 2.50 mM",55.88 nmol / min μg and 59.00 nmol / min μg and 63.38 nmol / min μg
same,inhibition of enzyme activity by UMP,atATC-F161A [1]; F161A,not inhibited
same,"N, number of binding sites per protein trimer according to the ligand binding model",[3],3
same,fold higher affinity for UMP than for CP,[3],~400 fold
same,fold higher affinity for UMP than for the transition-state analog (PALA),[3],3 fold
same,Kd,"[3]; site 1, read-out: KD Site 1",210 nM and 200 nM
same,Kd,"[3]; site 2, read-out: KD Site 2",2300 nM
same,Kd,"[3]; site 3, read-out: KD Site 3",1600 nM
same,fold reduction of the affinity of the other subunits after binding to the first site,[3]; negative cooperativity,10 fold
same,-TΔS Site 1,[3],-6.3 kcal/mol
same,ΔG Site 1,[3],-9.1 kcal/mol
same,ΔH Site 1,[3],-2.8 kcal/mol
same,-TΔS Site 2,[3],-8.9 kcal/mol
same,ΔG Site 2,[3],-7.7 kcal/mol
same,ΔH Site 2,[3],1.2 kcal/mol
same,-TΔS Site 3,[3]; site 3,-7.4 kcal/mol
same,ΔG Site 3,[3]; site 3,-7.9 kcal/mol
same,ΔH Site 3,[3]; site 3,-0.5 kcal/mol
same,"N, number of binding sites per protein trimer according to the ligand binding model",atATC WT:PALA,2
same,-TΔS Site 2,atATC WT:PALA,-8.5 kcal/mol
same,ΔG Site 2,atATC WT:PALA,-8.1 kcal/mol
same,ΔH Site 2,atATC WT:PALA,0.4 kcal/mol
same,-TΔS Site 3,atATC WT:PALA,-8.5 kcal/mol
same,ΔG Site 3,atATC WT:PALA,-8.1 kcal/mol
same,ΔH Site 3,atATC WT:PALA,0.4 kcal/mol
same,Kd,atATC WT:PALA,1200 nM
"NC(=O)OP(=O)(O)O [CP, carbamoyl phosphate]","N, number of binding sites per protein trimer according to the ligand binding model","atATC-F161A [2]; ITC, F161A",3
same,fold higher affinity of F161A than WT,"atATC-F161A [2]; ITC, F161A versus WT",~ 100 fold
same,-TΔS Site 1,"atATC-F161A [2]; ITC, F161A, site 1",-2.4 kcal/mol
same,ΔG Site 1,"atATC-F161A [2]; ITC, F161A, site 1",-8.4 kcal/mol
same,ΔH Site 1,"atATC-F161A [2]; ITC, F161A, site 1",-6.0 kcal/mol
same,-TΔS Site 2,"atATC-F161A [2]; ITC, F161A, site 2",-2.4 kcal/mol
same,ΔG Site 2,"atATC-F161A [2]; ITC, F161A, site 2",-8.4 kcal/mol
same,ΔH Site 2,"atATC-F161A [2]; ITC, F161A, site 2",-6.0 kcal/mol
same,-TΔS Site 3,"atATC-F161A [2]; ITC, F161A, site 3",-2.4 kcal/mol
same,ΔG Site 3,"atATC-F161A [2]; ITC, F161A, site 3",-8.4 kcal/mol
same,ΔH Site 3,"atATC-F161A [2]; ITC, F161A, site 3",-6.0 kcal/mol
same,Kd,"atATC-F161A [2]; KD Site 1, ITC, F161A, site 1",730 nM
same,Kd,"atATC-F161A [2]; KD Site 2, ITC, F161A, site 2",730 nM
same,Kd,"atATC-F161A [2]; KD Site 3, ITC, F161A, site 3",730 nM
same,Kd,"atATC-F161A [2]; KD, ITC, F161A",700 nM
same,Hill-coefficient h of CP initial-rate plot,"atATC WT; WT, CP as variable ligand, in the presence of UMP",2.2
same,"N, number of binding sites per protein trimer according to the ligand binding model",[3],3
same,Kd,"[3]; site 1, read-out: KD Site 1",80000 nM
same,Kd,"[3]; site 2, read-out: KD Site 2",80000 nM
same,Kd,"[3]; site 3, read-out: KD Site 3",80000 nM
same,-TΔS Site 1,[3],-2.6 kcal/mol
same,ΔG Site 1,[3],-5.6 kcal/mol
same,ΔH Site 1,[3],-3.0 kcal/mol
same,-TΔS Site 2,[3],-2.6 kcal/mol
same,ΔG Site 2,[3],-5.6 kcal/mol
same,ΔH Site 2,[3],-3.0 kcal/mol
same,-TΔS Site 3,[3]; site 3,-2.6 kcal/mol
same,ΔG Site 3,[3]; site 3,-5.6 kcal/mol
same,"N, number of binding sites per protein trimer according to the ligand binding model",atATC WT:PALA,2
same,-TΔS Site 2,atATC WT:PALA,0.4 kcal/mol
same,ΔG Site 2,atATC WT:PALA,-5.3 kcal/mol
same,ΔH Site 2,atATC WT:PALA,-5.7 kcal/mol
same,-TΔS Site 3,atATC WT:PALA,0.4 kcal/mol
same,ΔG Site 3,atATC WT:PALA,-5.3 kcal/mol
same,ΔH Site 3,atATC WT:PALA,-5.7 kcal/mol
same,Kd,atATC WT:PALA,140000 nM
